Reference: patent US10842151B2, “Small molecule compound for enhancing plant stress resistance” (SHANGHAI INSTITUTES FOR BIOLOGICAL SCIENCES, CHINESE …, priority 2015, dated 2020)

How the values were obtained:
[1] = tested on: Arabidopsis Col-0 ecotype; test: Soil drought experiment, Arabidopsis; assay type: in vivo, Arabidopsis thaliana
Procedure: Seeds of Arabidopsis Col-0 ecotype were sterilized with NaClO and then sown on ½ MS solid medium at 4° C. for 3 days of vernalization. After 6 days of growing, the well-grown seedlings having uniform size were selected and transferred into 8×7×6 cm^3 pots. Each pot was filled with the same weight of soil and the same number of plants (six plants) was planted to reduce experimental error. All the pots were subjected to a short-day culture at 22° C. After two weeks, watering was stopped for drought treatment. […] The position of the flowerpot was changed every day during the process of drought to reduce the error caused by environmental factors. During the whole drought period, the solution was sprayed twice in total and photos were recorded regularly. The watering was resumed in about three weeks.

PYL2 + HAB1 = target: T1, PYL2 + HAB1 (Arabidopsis thaliana, UniProt O80992); test: AlphaScreen experiment, PYL2 + HAB1; assay type: binding; details: number in brackets; read-out: Half maximum effect concentration EC50 (PYL2 + HAB1)
T1 construct: made in house; host or cells: E. coli BL21 (DE3)
T1 sequence (O80992 14-188 limits assumed): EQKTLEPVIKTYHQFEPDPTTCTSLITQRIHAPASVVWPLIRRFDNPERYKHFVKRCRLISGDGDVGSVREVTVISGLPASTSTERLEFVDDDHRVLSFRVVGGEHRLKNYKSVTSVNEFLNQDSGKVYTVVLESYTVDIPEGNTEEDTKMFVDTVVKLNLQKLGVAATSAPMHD
T1 sequence (Q9CAJ0 172-511 partner limits assumed): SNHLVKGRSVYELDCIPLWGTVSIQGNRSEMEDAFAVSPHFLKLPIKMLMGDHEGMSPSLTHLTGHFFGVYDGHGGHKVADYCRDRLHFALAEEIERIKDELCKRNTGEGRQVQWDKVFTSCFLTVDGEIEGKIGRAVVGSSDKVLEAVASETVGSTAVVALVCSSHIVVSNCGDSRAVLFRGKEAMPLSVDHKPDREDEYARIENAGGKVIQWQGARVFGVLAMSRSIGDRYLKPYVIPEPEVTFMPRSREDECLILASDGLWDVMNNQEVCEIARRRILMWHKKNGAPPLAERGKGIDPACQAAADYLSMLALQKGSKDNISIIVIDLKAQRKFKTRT
Procedure: (§1) After incubating for 1.5 hours at room temperature in the dark, it was placed into an Envision Plate Reader (available from Perkin Elmer) under the programmed AlphaScreen procedure for readings.

[2] = tested on: pyr1;pyl1;pyl4 triple mutant seeds; test: Seed germination, PYR/PYL triple mutant; assay type: in vivo, Arabidopsis thaliana; details: 1 μM; six days after seeding
Description: Two lines of plant were sown simultaneously on a single medium of 6 cm diameter, with 15 seeds sown for each line and 4 replicates for each compound. […]

[3] = tested on: soybean GmPYL3 and GmPYL6 + Arabidopsis AtHAB1; test: AlphaScreen experiment with soybean GmPYL receptors; assay type: binding; details: FIG. 9
Procedure: as §1

[4] = tested on: Arabidopsis ABA synthesis defective mutant aba2-1; assay type: in vivo, Arabidopsis thaliana; details: 5 μM sprayed; after 4 days; vs DMSO
[5] = tested on: Salmonella typhimurium TA98 and TA100; test: Bacterial reverse mutation experiment; assay type: cell-based; details: all doses; -S9
Procedure: (§2) The test substance used in the experiment was AMX compound 1127.
Two strains of Salmonella typhimurium, TA98 and TA100, were used in the bacterial reverse mutation experiment. The experiment was carried out by using standard plate incorporation method under a condition of non-metabolic activation system (−S9). There were totally 7 doses of […] as well as a negative control and a positive control.

soybean Williams 82 = test: Soybean leaf transpiration experiment (thermal imaging); assay type: in vivo; details: 50 μM sprayed, 0.2 μmol per plant; after three days; vs DMSO
Procedure: After three weeks of continuous watering, 0.05% tween-20 and corresponding concentrations of DMSO (control)/compound (+)-ABA/0918/1127 were sprayed onto the plants in a single administration with an amount of 1.2 ml/pot. Images were taken daily using the FLIR A655sc thermal imaging camera at the same time before and after spraying. The Williams 82 ecotype was used in soybean leaf transpiration experiments for compounds 0604c, 0918 and 1127 and was long-day cultured at 26° C. After the plants grew and had 3 leaves in each of 3 groups, 0.05% tween-20 and 50 μM DMSO (control)/(+)-ABA/0604c/0918/1127 compounds were sprayed in a single administration with an amount of 4 ml/pot. Images were taken daily using the FLIR A655sc thermal imaging camera at the same time before and after spraying.
Leaf transpiration experiments of soybean and cotton for compound 0720B were carried out at 26° C. with long-day lighting. 16 days and 23 days after sowing, a solution containing 0.1% tween-20 and corresponding concentration of (+)-ABA, or 0720B compound or 0.1% Tween-20 and 0.05% DMSO (control) was sprayed in an amount of 4 ml/pot. Images were taken daily using the FLIR A655sc thermal imaging camera at the same time before and after spraying.

PYL7 + HAB1 = target: T2, PYL7 + HAB1 (Arabidopsis thaliana, UniProt Q1ECF1); test: AlphaScreen experiment, PYL7 + HAB1; assay type: binding; details: number in brackets; read-out: Half maximum effect concentration EC50 (PYL7 + HAB1)
T2 construct: made in house; host or cells: E. coli BL21 (DE3)
T2 sequence (Q1ECF1 1-211): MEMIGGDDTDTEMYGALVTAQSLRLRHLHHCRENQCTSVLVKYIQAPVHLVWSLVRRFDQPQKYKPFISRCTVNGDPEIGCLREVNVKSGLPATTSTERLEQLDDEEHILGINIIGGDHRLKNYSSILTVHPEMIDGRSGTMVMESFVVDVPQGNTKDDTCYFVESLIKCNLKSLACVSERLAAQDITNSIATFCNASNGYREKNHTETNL
T2 sequence (Q9CAJ0 172-511 partner limits assumed): T1 sequence (Q9CAJ0 172-511 partner limits assumed)
Procedure: as §1

[6] = Maximum tolerated dose, single oral gavage; assay type: in vivo; details: both sexes, rat, in vivo, 5000 mg/kg, SD rats
Procedure: as §2
(§3) In the maximum tolerated dose of tested substance in single oral gavage experiment in SD rat, 8 SD rats were randomly divided into two groups, with […]. After a single oral gavage administration, rats were observed continuously for 14 days and dissected on the 15th day. The following indicators were evaluated: clinical observation, body weight and pathology examination (macroscopic morphology).

SD rat = test: Maximum tolerated dose, single oral gavage; assay type: in vivo; details: 5000 mg/kg, male and female rats
Procedure: as §2, §3

For CCCN1C(=O)CCc2cc(NS(=O)(=O)Cc3c(F)c(F)c(C)c(F)c3F)ccc21 [Compound 1127], the plant survival ([1]; 5 μM sprayed, 18 days after drought) was “still survived”, the plant growth ([1]; 5 μM sprayed, after 20 days of drought) was “still maintained good growth” and the “drought resistance compared with compound with fewer halogen atoms (0604c)” value ([1]; same concentration, after 2 weeks of drought, FIG. 8c) was “stronger drought resistance”. For the same compound, the EC50 (PYL2 + HAB1) was 20 nM, the “germination of pyr1;pyl1;pyl4 triple mutant seeds” value [2] was “could not inhibit germination of PYR/PYL triple mutant pyr1;pyl1;pyl4 seeds” and the “affinities for soybean GmPYL proteins compared with ABA” value [3] was “significantly higher affinities”. For the same compound, the leaf temperature [4] was “still higher than that in the control group”, the “bacterial toxicity to TA98 and TA100 strains” value [5] was “no obvious bacterial toxicity” and the leaf temperature (soybean Williams 82) was “still significantly higher than that in the DMSO-sprayed control”. For the same compound, the EC50 (PYL7 + HAB1) was 10 nM, the MTD at 14 days [6] was greater than 5000 mg/kg and the “clinical observation, body weight and macroscopic morphological observation of tissues/organs” value (SD rat) was “no drug-related changes were observed”.
